Measured values reported in US12403137B2, “Compounds and methods of use” (Tango Therapeutics, Inc., priority 2019, dated 2025).

How the values were obtained:
PRMT5 [1] = target: T1, PRMT5 (Homo sapiens, UniProt O14744); assay: PRMT5 inhibition assay with no cofactor; type: biochemical; conditions: against PRMT5 with no cofactor; read-out: No Co-factor IC50
T1 construct: purchased Viva (custom protein)

PRMT5 [2] = target: T1, PRMT5; assay: PRMT5 inhibition assay with SAM as cofactor; type: biochemical; conditions: against PRMT5 in the presence of SAM as cofactor
Excerpt: (§1) The Ki values can be calculated from the IC50 values as described in the Examples section. As detailed in the Examples section, for the assay performed in the presence of SAM, IC50=Ki×1.5 (Ki=IC50/1.5). For the assay performed in the presence of MTA, IC50=Ki×13.5 (Ki=IC50/13.5). Column 6 indicates the ratio between the Ki of compounds in the presence of SAM and the Ki of compounds in the presence of MTA

[3] = system: HAP1 MTAP-deleted cell line; assay: SDMA in-cell western assay, HAP1 MTAP-deleted; type: cell-based; conditions: for IC50: Homo sapiens, HAP1 MTAP-deleted (MTAP-null) cell line; for MTAP Intact/Deleted Ratio: IC50 ratio HAP1 MTAP-intact / HAP1 MTAP-deleted, >=3 fold considered MTAP-selective
Outline: (§2)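 Symmetric dimethylarginine (SDMA) levels were measured by in-cell western in an isogenic HAP1 pair. One line expresses endogenous MTAP and the other is MTAP-null, with an IC50 derived in each.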

PRMT5 [4] = target: T1, PRMT5; assay: PRMT5 inhibition assay with MTA as cofactor; type: biochemical; conditions: for IC50: against PRMT5 with MTA as cofactor; for SAM/MTA Ratio: ratio of Ki in the presence of SAM to Ki in the presence of MTA, Ki=IC50/1.5 (SAM), Ki=IC50/13.5 (MTA)
Excerpt: as §1

[5] = system: HAP1 MTAP-intact cell line; assay: SDMA in-cell western assay, HAP1 MTAP-intact; type: cell-based; conditions: Homo sapiens
Outline: as §2

T1 sequence (O14744 whole entry): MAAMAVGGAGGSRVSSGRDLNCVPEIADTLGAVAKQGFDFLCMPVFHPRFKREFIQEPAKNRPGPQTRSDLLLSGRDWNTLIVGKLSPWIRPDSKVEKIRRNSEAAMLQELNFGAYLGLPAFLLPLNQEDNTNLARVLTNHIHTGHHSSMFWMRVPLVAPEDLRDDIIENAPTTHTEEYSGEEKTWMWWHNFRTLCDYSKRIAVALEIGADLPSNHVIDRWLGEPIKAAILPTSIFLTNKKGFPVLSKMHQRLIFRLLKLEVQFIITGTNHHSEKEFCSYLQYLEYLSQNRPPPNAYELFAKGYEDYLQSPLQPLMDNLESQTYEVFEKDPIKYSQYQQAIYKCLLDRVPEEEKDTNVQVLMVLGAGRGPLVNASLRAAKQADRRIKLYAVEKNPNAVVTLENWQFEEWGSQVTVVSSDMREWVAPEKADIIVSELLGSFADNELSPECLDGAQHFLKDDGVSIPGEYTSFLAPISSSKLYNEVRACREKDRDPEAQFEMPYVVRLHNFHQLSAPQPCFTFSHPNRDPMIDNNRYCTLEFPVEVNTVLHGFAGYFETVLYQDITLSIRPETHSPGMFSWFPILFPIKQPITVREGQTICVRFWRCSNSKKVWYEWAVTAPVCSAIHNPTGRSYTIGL
T1 sequence (Q9BQA1 whole entry partner): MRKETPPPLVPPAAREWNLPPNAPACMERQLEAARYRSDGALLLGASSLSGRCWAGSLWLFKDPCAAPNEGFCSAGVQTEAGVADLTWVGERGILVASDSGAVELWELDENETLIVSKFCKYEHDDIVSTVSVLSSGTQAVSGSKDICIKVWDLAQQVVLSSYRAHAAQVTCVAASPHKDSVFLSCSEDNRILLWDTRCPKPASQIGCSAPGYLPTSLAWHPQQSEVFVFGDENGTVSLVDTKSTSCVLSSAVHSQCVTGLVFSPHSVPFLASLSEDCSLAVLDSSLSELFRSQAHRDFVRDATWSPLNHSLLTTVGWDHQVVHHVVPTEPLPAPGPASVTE

With Cc1ncoc1COc1ccc2c(c1)CN[C@H]([C@H](O)CNC(=O)c1cc(NC3CCC3)nc(N3CCN(C(C)C)CC3)c1)C2 [Compound 30, 2-(cyclobutylamino)-N—((R)-2-hydroxy-2-((S)-7-((4-methyloxazol-5-yl)methoxy)-1,2,3,4-tetrahydroisoquinolin-3-yl)ethyl)-6-(4-isopropylpiperazin-1-yl)isonicotinamide] the IC50 (PRMT5 [1]) was 50 to 500 nM, the IC50 (PRMT5 [2]) was 50 to 500 nM and the IC50 [3] was at least 10000 nM. The “MTAP Intact/Deleted Ratio” value [3] was “C* (an IC50 ratio of less than 3 fold between the IC50 in the HAP1 MTAP-intact cell line and the HAP1 MTAP-deleted cell line)”, the IC50 (PRMT5 [4]) was under 50 nM and the “SAM/MTA Ratio” value (PRMT5 [4]) was “A (a Ki ratio greater than or equal to 10 fold between the Ki in the presence of SAM and the Ki in the presence of MTA)”. It also gave an IC50 [5] of at least 10 µM.

In the case of CCOc1nc(N2CCN(C(=O)OC)CC2)ccc1C(=O)NC[C@@H](O)[C@@H]1Cc2ccc(OCc3ocnc3C)cc2CN1 [Compound 17, methyl 4-(6-ethoxy-5-(((R)-2-hydroxy-2-((S)-7-((4-methyloxazol-5-yl)methoxy)-1,2,3,4-tetrahydroisoquinolin-3-yl)ethyl)carbamoyl)pyridin-2-yl)piperazine-1-carboxylate], the IC50 (PRMT5 [1]) is reported as 50 to 500 nM, the IC50 (PRMT5 [2]) is reported as 50 to 500 nM and the IC50 [3] is reported as under 1000 nM. The “MTAP Intact/Deleted Ratio” value [3] was “A* (an IC50 ratio greater than or equal to 10 fold between the IC50 in the HAP1 MTAP-intact cell line and the HAP1 MTAP-deleted cell line)”, the IC50 (PRMT5 [4]) was under 50 nM and the “SAM/MTA Ratio” value (PRMT5 [4]) was “A (a Ki ratio greater than or equal to 10 fold between the Ki in the presence of SAM and the Ki in the presence of MTA)”. It also gave an IC50 [5] of 1 to 10 µM.

Cc1ncoc1COc1ccc2c(c1)CN[C@H]([C@H](O)CNC(=O)c1ccc(C(=O)N3[C@@H]4CCC[C@H]3COC4)cc1)C2 [Compound 8, 4-((1R,5S)-3-oxa-9-azabicyclo[3.3.1]nonane-9-carbonyl)-N—((R)-2-hydroxy-2-((S)-7-((4-methyloxazol-5-yl)methoxy)-1,2,3,4-tetrahydroisoquinolin-3-yl)ethyl)benzamide] was tested, and the IC50 (PRMT5 [1]) was 50 to 500 nM, the IC50 (PRMT5 [2]) was 50 to 500 nM and the IC50 [3] was under 1000 nM. For the same compound, the “MTAP Intact/Deleted Ratio” value [3] was “A* (an IC50 ratio greater than or equal to 10 fold between the IC50 in the HAP1 MTAP-intact cell line and the HAP1 MTAP-deleted cell line)”, the IC50 (PRMT5 [4]) was 50 to 500 nM and the “SAM/MTA Ratio” value (PRMT5 [4]) was “A (a Ki ratio greater than or equal to 10 fold between the Ki in the presence of SAM and the Ki in the presence of MTA)”. It also gave an IC50 [5] of 1 to 10 µM.

In the case of Cc1ncoc1COc1ccc2c(c1)CN[C@H]([C@H](O)CNC(=O)c1cc(NC3CCC3)nc(N3CCN(C(C)C)CC3)n1)C2 [Compound 63], the IC50 (PRMT5 [1]) is reported as 50 to 500 nM, the IC50 (PRMT5 [2]) is reported as 50 to 500 nM and the IC50 [3] is reported as under 1000 nM. The “MTAP Intact/Deleted Ratio” value [3] was “C* (an IC50 ratio of less than 3 fold between the IC50 in the HAP1 MTAP-intact cell line and the HAP1 MTAP-deleted cell line)”, the IC50 (PRMT5 [4]) was under 50 nM and the “SAM/MTA Ratio” value (PRMT5 [4]) was “A (a Ki ratio greater than or equal to 10 fold between the Ki in the presence of SAM and the Ki in the presence of MTA)”. For the same compound, the IC50 [5] was under 1 µM.

CC(=O)N1CCC(Nc2cc(C(=O)NC[C@@H](O)[C@@H]3Cc4ccc(OCc5ocnc5C)cc4CN3)nc(N3CCCCC3)n2)CC1 [Compound 50, 6-[(1-acetyl-4-piperidyl)amino]-N-[(2R)-2-hydroxy-2-[(3S)-7-[(4-methyloxazol-5-yl)methoxy]-1,2,3,4-tetrahydroisoquinolin-3-yl]ethyl]-2-(1-piperidyl)pyrimidine-4-carboxamide] was tested, and the IC50 (PRMT5 [1]) was 50 to 500 nM, the IC50 (PRMT5 [2]) was 50 to 500 nM and the IC50 [3] was under 1000 nM. For the same compound, the “MTAP Intact/Deleted Ratio” value [3] was “A* (an IC50 ratio greater than or equal to 10 fold between the IC50 in the HAP1 MTAP-intact cell line and the HAP1 MTAP-deleted cell line)”, the IC50 (PRMT5 [4]) was under 50 nM and the “SAM/MTA Ratio” value (PRMT5 [4]) was “A (a Ki ratio greater than or equal to 10 fold between the Ki in the presence of SAM and the Ki in the presence of MTA)”. It also gave an IC50 [5] of under 1 µM.

CC(=O)N1CC(Nc2cc(C(=O)NC[C@@H](O)[C@@H]3Cc4ccc(OCc5ocnc5C)cc4CN3)nc(N3CCN(C(C)C)CC3)n2)C1 [Compound 47, 6-[(1-acetylazetidin-3-yl)amino]-N-[(2R)-2-hydroxy-2-[(3S)-7-[(4-methyloxazol-5-yl)methoxy]-1,2,3,4-tetrahydroisoquinolin-3-yl]ethyl]-2-(4-isopropylpiperazin-1-yl)pyrimidine-4-carboxamide] was tested, and the IC50 (PRMT5 [1]) was 50 to 500 nM, the IC50 (PRMT5 [2]) was 50 to 500 nM and the IC50 [3] was 1000 to 10000 nM. The “MTAP Intact/Deleted Ratio” value [3] was “C* (an IC50 ratio of less than 3 fold between the IC50 in the HAP1 MTAP-intact cell line and the HAP1 MTAP-deleted cell line)”, the IC50 (PRMT5 [4]) was under 50 nM and the “SAM/MTA Ratio” value (PRMT5 [4]) was “A (a Ki ratio greater than or equal to 10 fold between the Ki in the presence of SAM and the Ki in the presence of MTA)”. The IC50 [5] was at least 10 µM.

For CCC(=O)N1CCN(c2cc(C(=O)NC[C@@H](O)[C@@H]3Cc4ccc(OCc5ocnc5C)cc4CN3)cc(NC3CCC3)n2)CC1 [Compound 39, 2-(cyclobutylamino)-N—((R)-2-hydroxy-2-((S)-7-((4-methyloxazol-5-yl)methoxy)-1,2,3,4-tetrahydroisoquinolin-3-yl)ethyl)-6-(4-propionylpiperazin-1-yl)isonicotinamide], the IC50 (PRMT5 [1]) was 50 to 500 nM, the IC50 (PRMT5 [2]) was 50 to 500 nM and the IC50 [3] was under 1000 nM. The “MTAP Intact/Deleted Ratio” value [3] was “A* (an IC50 ratio greater than or equal to 10 fold between the IC50 in the HAP1 MTAP-intact cell line and the HAP1 MTAP-deleted cell line)”, the IC50 (PRMT5 [4]) was under 50 nM and the “SAM/MTA Ratio” value (PRMT5 [4]) was “A (a Ki ratio greater than or equal to 10 fold between the Ki in the presence of SAM and the Ki in the presence of MTA)”. For the same compound, the IC50 [5] was 1 to 10 µM.

With Cc1ncoc1COc1ccc2c(c1)CN[C@H]([C@H](O)CNC(=O)c1cccc(NC3CCC3)c1)C2 [Compound 28, 3-(cyclobutylamino)-N—((R)-2-hydroxy-2-((S)-7-((4-methyloxazol-5-yl)methoxy)-1,2,3,4-tetrahydroisoquinolin-3-yl)ethyl)benzamide] the IC50 (PRMT5 [1]) was 50 to 500 nM, the IC50 (PRMT5 [2]) was 50 to 500 nM and the IC50 [3] was under 1000 nM. For the same compound, the “MTAP Intact/Deleted Ratio” value [3] was “A* (an IC50 ratio greater than or equal to 10 fold between the IC50 in the HAP1 MTAP-intact cell line and the HAP1 MTAP-deleted cell line)”, the IC50 (PRMT5 [4]) was under 50 nM and the “SAM/MTA Ratio” value (PRMT5 [4]) was “A (a Ki ratio greater than or equal to 10 fold between the Ki in the presence of SAM and the Ki in the presence of MTA)”. The IC50 [5] was 1 to 10 µM.

Work on O=C(NC[C@@H](O)[C@@H]1Cc2ccc(OCc3cnco3)cc2CN1)c1ccc(C(=O)N2CCOCC2)cc1 [Compound 1, N—((R)-2-hydroxy-2-((S)-7-(oxazol-5-ylmethoxy)-1,2,3,4-tetrahydroisoquinolin-3-yl)ethyl)-4-(morpholine-4-carbonyl)benzamide] yielded an IC50 (PRMT5 [1]) of at least 5000 nM, an IC50 (PRMT5 [2]) of 50 to 500 nM and an IC50 [3] of at least 10000 nM. For the same compound, the “MTAP Intact/Deleted Ratio” value [3] was “C* (an IC50 ratio of less than 3 fold between the IC50 in the HAP1 MTAP-intact cell line and the HAP1 MTAP-deleted cell line)”, the IC50 (PRMT5 [4]) was 50 to 500 nM and the “SAM/MTA Ratio” value (PRMT5 [4]) was “A (a Ki ratio greater than or equal to 10 fold between the Ki in the presence of SAM and the Ki in the presence of MTA)”. For the same compound, the IC50 [5] was at least 10 µM.

Cc1ncoc1COc1ccc2c(c1)CN[C@H]([C@H](O)CNC(=O)c1ccc3c(c1)CCN(C(=O)c1ccc(Br)cc1)C3)C2 [Compound 20, 2-(4-bromobenzoyl)-N—((R)-2-hydroxy-2-((S)-7-((4-methyloxazol-5-yl)methoxy)-1,2,3,4-tetrahydroisoquinolin-3-yl)ethyl)-1,2,3,4-tetrahydroisoquinoline-6-carboxamide] was tested, and the IC50 (PRMT5 [1]) was 50 to 500 nM, the IC50 (PRMT5 [2]) was 50 to 500 nM and the IC50 [3] was under 1000 nM. For the same compound, the “MTAP Intact/Deleted Ratio” value [3] was “A* (an IC50 ratio greater than or equal to 10 fold between the IC50 in the HAP1 MTAP-intact cell line and the HAP1 MTAP-deleted cell line)”, the IC50 (PRMT5 [4]) was under 50 nM and the “SAM/MTA Ratio” value (PRMT5 [4]) was “A (a Ki ratio greater than or equal to 10 fold between the Ki in the presence of SAM and the Ki in the presence of MTA)”. The IC50 [5] was 1 to 10 µM.

Compound O=C(NC[C@@H](O)[C@@H]1Cc2ccc(OCc3cn[nH]c3)cc2CN1)c1ccc(C(=O)N2CCOCC2)cc1 [Compound 4, N—((R)-2-((S)-7-((1H-pyrazol-4-yl)methoxy)-1,2,3,4-tetrahydroisoquinolin-3-yl)-2-hydroxyethyl)-4-(morpholine-4-carbonyl)benzamide] has an IC50 (PRMT5 [1]) of 50 to 500 nM, an IC50 (PRMT5 [2]) of 50 to 500 nM and an IC50 [3] of 1000 to 10000 nM. For the same compound, the “MTAP Intact/Deleted Ratio” value [3] was “C* (an IC50 ratio of less than 3 fold between the IC50 in the HAP1 MTAP-intact cell line and the HAP1 MTAP-deleted cell line)”, the IC50 (PRMT5 [4]) was 50 to 500 nM and the “SAM/MTA Ratio” value (PRMT5 [4]) was “A (a Ki ratio greater than or equal to 10 fold between the Ki in the presence of SAM and the Ki in the presence of MTA)”. For the same compound, the IC50 [5] was at least 10 µM.

In the case of CCN1CCN(c2cc(C(=O)NC[C@@H](O)[C@@H]3Cc4ccc(OCc5ocnc5C)cc4CN3)cc(NC3CCC3)n2)CC1 [Compound 55, 2-(cyclobutylamino)-6-(4-ethylpiperazin-1-yl)-N-[(2R)-2-hydroxy-2-[(3S)-7-[(4-methyloxazol-5-yl)methoxy]-1,2,3,4-tetrahydroisoquinolin-3-yl]ethyl]pyridine-4-carboxamide], the IC50 (PRMT5 [1]) is reported as 50 to 500 nM, the IC50 (PRMT5 [2]) is reported as 50 to 500 nM and the IC50 [3] is reported as under 1000 nM. For the same compound, the “MTAP Intact/Deleted Ratio” value [3] was “B* (an IC50 ratio greater than or equal to 3 fold but lower than 10 fold between the IC50 in the HAP1 MTAP-intact cell line and the HAP1 MTAP-deleted cell line)”, the IC50 (PRMT5 [4]) was under 50 nM and the “SAM/MTA Ratio” value (PRMT5 [4]) was “A (a Ki ratio greater than or equal to 10 fold between the Ki in the presence of SAM and the Ki in the presence of MTA)”. For the same compound, the IC50 [5] was under 1 µM.
